Patent US20130096193A1, “CREATINE BETA-ALANINATE: A NOVEL SALT FOR INCREASING ATHLETIC PERFORMANCE” (priority 2009, published 2013)
Like-named read-outs stand apart in the source and are kept apart here.

How the values were obtained:
[1] = after 10 week supplementation; cited from earlier work
[2] = cited from earlier work

Row | Compound | increase in intramuscular carnosine content, average [1] [%] | paraesthesia symptoms ([2]; 10 mg per kg body weight, some individuals) | paraesthesia symptoms ([2]; 20 mg per kg bodyweight, majority of individuals) | paraesthesia symptoms ([2]; 40 mg per kg body weight) | ingested amount that causes paraesthesia ([2]; in solution or as powder in gelatin capsules) | duration of paraesthesia ([2]; oral) | time to beginning of paraesthesia after oral administration ([2]; oral) | additional β-alanine administrable before symptoms of paraesthesia, compared with β-alanine alone (human subjects, oral) | single oral dose administered before the onset of paraesthesia was noted (human subjects, oral, gelatin capsules, single dose) | equivalent β-alanine dose before onset of paraesthesia (salt mass is about 40.45% β-alanine)
1 | NCCC(=O)O [β-alanine, 3-Aminopropanoic acid] | 80.1 | mild symptoms | significant symptoms | severe symptoms | above 10 mg per kg body weight | up to 1 hour | about 20 minutes | – | – | –
2 | creatine β-alaninate | – | – | – | – | – | – | – | roughly 100% | up to 55.00 mg/kg | about 22.25 mg/kg
